Reference: US10287269B2, “Pyrazolyl pyrimidinone compounds as PDE2 inhibitors” (Merck Sharp & Dohme Corp., priority 2015, dated 2019)

Assays:
other PDE isoforms = conditions: reported in Brandon et al. 2007; cited from earlier work
[1] = reported in Brandon et al. 2007; cited from earlier work
human PDE2A1 = biological target: T1, human PDE2A1 (Homo sapiens, UniProt O00408); assay: PDE2 IMAP FP inhibition assay, human enzyme (PDE selectivity panel format); assay type: biochemical; conditions: Lab A; read-out: Human PDE2 Ki (nM) Lab A
T1 construct: GST; purchased BPS Bioscience (San Diego, Calif.) 60020; host or cells: insect cells
T1 sequence (O00408 1-920 isoform O00408-2): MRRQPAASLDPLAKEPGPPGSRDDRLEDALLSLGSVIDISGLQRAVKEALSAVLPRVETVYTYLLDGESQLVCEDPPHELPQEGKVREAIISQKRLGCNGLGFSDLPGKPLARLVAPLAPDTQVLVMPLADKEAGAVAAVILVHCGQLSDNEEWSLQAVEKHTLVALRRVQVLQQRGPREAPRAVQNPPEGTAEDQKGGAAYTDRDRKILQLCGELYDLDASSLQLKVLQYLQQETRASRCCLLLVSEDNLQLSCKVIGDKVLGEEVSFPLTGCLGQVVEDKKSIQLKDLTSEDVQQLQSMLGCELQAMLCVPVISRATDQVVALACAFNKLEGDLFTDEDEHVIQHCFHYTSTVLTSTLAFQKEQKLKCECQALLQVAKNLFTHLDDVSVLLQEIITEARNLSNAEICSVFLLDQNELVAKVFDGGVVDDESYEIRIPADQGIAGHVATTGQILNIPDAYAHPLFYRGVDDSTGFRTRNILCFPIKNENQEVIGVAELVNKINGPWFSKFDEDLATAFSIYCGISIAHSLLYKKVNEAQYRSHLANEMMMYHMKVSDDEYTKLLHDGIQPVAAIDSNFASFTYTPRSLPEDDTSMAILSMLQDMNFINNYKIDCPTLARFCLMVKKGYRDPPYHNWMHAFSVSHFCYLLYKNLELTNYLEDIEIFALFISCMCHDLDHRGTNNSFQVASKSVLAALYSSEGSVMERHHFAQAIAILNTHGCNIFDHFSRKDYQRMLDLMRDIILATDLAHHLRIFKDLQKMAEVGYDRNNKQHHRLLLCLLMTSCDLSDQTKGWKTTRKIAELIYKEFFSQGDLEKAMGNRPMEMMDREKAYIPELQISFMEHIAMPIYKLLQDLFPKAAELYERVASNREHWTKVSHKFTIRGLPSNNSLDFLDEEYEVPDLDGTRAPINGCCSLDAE
Procedure: Selectivity for PDE2, as compared to other PDE families, was assessed using the IMAP® technology. Human PDE10A2 enzyme was prepared from cytosolic fractions of transiently transfected HEK cells. All other PDE's were GST Tag human enzyme expressed in insect cells and were obtained from BPS Bioscience (San Diego, Calif.): PDE1A (Cat#60010), human PDE2A1 (Cat#60020), PDE3A (Cat#60030), PDE4A1A (Cat#60040), PDE5A1 (Cat#60050), PDE6C (Cat#60060), PDE7A (Cat#60070), PDE8A1 (Cat#60080), PDE9A2 (Cat#60090), PDE11A4 (Cat#60110).
Assays for PDE 1 through 11 were performed in parallel at room temperature in 384-well microtiter plates with an incubation volume of 20.2 μL. Solutions of test compounds were prepared in DMSO and serially diluted with DMSO to yield 30 μL of each of ten solutions differing by 3-fold in concentration, at 32 serial dilutions per plate. […] A Labcyte POD 810 (Labcyte, Sunnyvale, Calif.) was used to dispense 200 nL from each well of the titration plate to make eleven copies of the assay plate for each titration, one copy for each PDE enzyme. A solution of each enzyme (dilution from aliquots, sufficient to produce 20% substrate conversion) and a separate solution of FAM-labeled cAMP or FAM-labeled cGMP from Molecular Devices (Sunnyvale, Calif., product # R7506 or cGMP#R7508), at a final concentration of 50 nM were made in the assay buffer (10 mM Tris HCl, pH 7.2, 10 mM MgCl2, 0.05% NaN3 0.01% Tween-20, and 1 mM DTT). Note that the substrate for PDE2 is 50 nM FAM cAMP containing 1000 nM of cGMP. The enzyme and the substrate were then added to the assay plates in two consecutive additions of 10 μL and then shaken to mix. The reaction was allowed to proceed at room temperature for 60 minutes. A binding solution was then made from the kit components, comprised of 80% Solution A, 20% Solution B and binding reagent at a volume of 1/600 the total binding solution. The enzymatic reaction was stopped by addition of 60 μL of the binding solution to each well of the assay plate. The plates were sealed and shaken for 10 seconds. The plates were incubated at room temperature for one hour, then the parallel and perpendicular fluorescence was measured using a Tecan Genios Pro plate reader (Tecan, Switzerland). The apparent inhibition constants for the compounds against all 11 PDE's was determined from the parallel and perpendicular fluorescent readings as described for PDE10 FP assay using the following apparent KM values for each enzyme and substrate combination: PDE1A (FAM cGMP) 70 nM, human PDE2A1 (FAM cAMP) 10,000 nM, PDE3A (FAM cAMP) 50 nM, PDE4A1A (FAM cAMP) 1500 nM, PDE5A1 (FAM cGMP) 400 nM, PDE6C (FAM cGMP) 700 nM, PDE7A (FAM cAMP) 150 nM, PDE8A1 (FAM cAMP) 50 nM, PDE9A2 (FAM cGMP) 60 nM, PDE10A2 (FAM cAMP) 150 nM, PDE11A4 (FAM cAMP) 1000 nM. The intrinsic PDE2 inhibitory activity of a compound which may be used in accordance with the present invention may be determined by these assays. […]

Row | Ki (human PDE2A1) | Compound | potency at other PDE isoforms (other PDE isoforms) | brain penetration [1]
1 | – | COc1ccc(Cc2nn3c([C@@H](CCCc4ccccc4)[C@@H](C)O)nc(C)c3c(=O)[nH]2)cc1OC [Bay 60-7550] | significant potency | limited brain penetration
2 | > 2960 nM | Cc1nc(-c2cnn(C(C)c3ccc(CC(F)(F)F)cc3C)c2)cc(=O)[nH]1 (single isomer, unassigned) [Example 105, (R)- or (S)-2-methyl-6-(1-(1-(2-methyl-4-(2,2,2-trifluoroethyl)phenyl)ethyl)-1H-pyrazol-4-yl)pyrimidin-4(3H)-one] | – | –
3 | 358 nM | Cc1nc(-c2cnn(C(C)c3ccc(C4CC4)cc3Cl)c2)cc(=O)[nH]1 (single isomer, unassigned) [Example 108, (S)- or (R)-6-(1-(1-(2-chloro-4-cyclopropylphenyl)ethyl)-1H-pyrazol-4-yl)-2-methylpyrimidin-4(3H)-one] | – | –
4 | 27.5 nM | Cc1nc(-c2cnn(C(CO)c3ccc(C(F)(F)F)cc3F)c2)cc(=O)[nH]1 (single isomer, unassigned) [Example 109, (R)- or (S)-6-(1-(1-(2-fluoro-4-(trifluoromethyl)phenyl)-2-hydroxyethyl)-1H-pyrazol-4-yl)-2-methylpyrimidin-4(3H)-one] | – | –
